Experimental data as given in patent publication EP0410366A2, “Anthracycline derivatives” (BEHRINGWERKE Aktiengesellschaft, priority 1989, dated 1991).
≈ marks a conversion by molar mass, not a printed value. Like-named read-outs stand apart in the source and are kept apart here.

Tests used:
L 1210 Leukämiezellen = assay: Cytotoxicity against L 1210 leukemia cells (stem cell assay, SCA; colony formation in soft agar); type: cell-based, Maus; settings: Mus musculus
Experimental: Der Test wurde entsprechend der von Hamburger und Salmon beschriebenen Methodik mit den unten beschriebenen Modifikationen durchgeführt.
Konditioniertes Medium wurde durch McCoy 5A Medium ersetzt. Als Folge der hohen Klonierungsrate der L 1210 Leukämiezellen in Soft Agar wurde die Anzahl an Tumorzellen pro Platte auf 5 x 10² reduziert.
Die Zellen wurden mit unterschiedlichen Konzentrationen der Testsubstanz für 1 h bei 37° C inkubiert. Anschließend wurden die Zellen zweimal mit McCoy 5A Medium gewaschen und anschließend in einem Zwei-Schichten-Agar System als obere Schicht entsprechend der Methode von Hamburger und Salmon ausplatiert.
Zusätzliche Parallelexperimente wurden unter Verwendung einer kontinuierlichen Inkubationszeit durchgeführt, wobei unterschiedliche Konzentrationen der Testsubstanz der oberen Agarschicht vor Ausplatieren der Zellen zugemischt wurden.
Die Platten wurden in einem Brutschrank mit 5 % CO₂, 20 % 02 und 95 % relativer Luftfeuchte für 5-7 Tage inkubiert. Nach dieser Zeit wurden Kolonien mit einem Durchmesser von 60 µm mit Hilfe eines Invertoskopes gezählt.
Die Ergebnisse wurden angegeben als prozentualer Anteil der Kolonien in behandelten versus unbehandelten Gruppen. Der Variationskoeffizient bei wiederholten Experimenten war kleiner als 15 %.
Aus der Dosis-Wirkungskurve wurde die IC₅₀ für die kontinuierliche und einstündige Inkubation bestimmt (Tab. 1).

L 1210 = assay: Proliferation test (MTT reduction), L 1210; type: cell-based, Maus; settings: Mus musculus, read-out: IC₅₀ MTT L1210
Experimental: (§1) L 1210, A 549 oder HT 29 in exponentieller Wachstumsphase werden in einer Zelldichte von 5 x 10³ Zellen/ml in RPMI 1640 in einer 96 Well Mikrotiterplatte für 72 h mit unterschiedlichen Konzentrationen der Testsubstanz bei 37° C, 5 % CO₂ und 95 % relativer Luftfeuchte inkubiert. Kontrollexperimente erhalten anstelle der Testsubstanz lediglich Wachstumsmedium. Für jede Testsubstanz sowie für die Kontrolle werden 4fach Bestimmungen angesetzt. Nach 65 h Inkubation werden 50 µl einer MTT-Lösung (2.5 mg/ml in Phosphat-gepuffertem Kochsalz) zugegeben. In Gegenwart lebender Zellen wird MTT zu einem dunkelroten unlöslichen Formazanfarbstoff reduziert. Diese Reaktion ist nach 7 h (L 1210 Zellen) bzw. nach 24 h (A 549, HT 29 Zellen) beendet, und das überstehende Medium wird sorgfältig abgesaugt. Der unlösliche Farbstoff wird durch Zugabe von 100 µl DMSO aufgelöst und die Extinktion der so entstehenden Lösung anschließend für jedes Well in einem Multiscan Photometer 340 CC der Fa. Flow bei einer Wellenlänge von 492 nm vermessen.
(§2) Aus dem Verhältnis der Extinktionen behandelter und unbehandelter Zellen ergibt sich eine Dosis-Wirkungskurve, aus der die Konzentration, die gerade 50 % der Zellen (IC₅₀) abtötet, abgelesen werden kann. Für wiederholte Untersuchungen beträgt der Variationskoeffizient weniger als 15 % (Tabelle 1). Tabelle 1

A 549 = assay: Proliferation test (MTT reduction), A 549; type: cell-based; settings: Homo sapiens, read-out: IC₅₀ MTT A 549
Experimental: as §1, §2

HT 29 = assay: Proliferation test (MTT reduction), HT 29; type: cell-based; settings: Homo sapiens, read-out: IC₅₀ MTT HT 29
Experimental: as §1, §2

L 1210 Leukämie = type: in vivo; settings: for opt. Dosis: dose with the largest antitumoral effect
Experimental: Methodik: Ascitesflüssigkeit wird unter sterilen Bedingungen DBA2 Mäusen (weiblich, 18-20 g) 7 Tage nach Implantation entnommen. Der Ascites wird dreimal mit PBS gewaschen, gezählt und auf eine Zellzahl von 10⁴ in 0.2 ml PBS eingestellt.
10⁴ Zellen, suspendiert in 0.2 ml PBS, werden anschließend DBF1 Mäusen (weiblich, 18-20 g) intravenös injiziert. 6 Tiere pro Gruppe werden für jede Substanzkonzentration bzw. als Kontrolle eingesetzt.
• a) Die Tiere werden am Tag 1 und 5 nach Injektion der Testsubstanz gewogen. Gewichtsverlust von mehr als 20 % am Tag 5 wird als Indikator einer toxischen Substanzwirkung angesehen. • b) Am Ende des Experimentes (Tod aller Tiere oder überlebende Tiere am Tag 60) wird die mittlere Überlebenszeit der Tiere in den jeweiligen Gruppen bestimmt, sofern am Tag 5 des Experimentes mindestens 65 % der Tiere noch gelebt hatten. Die mittlere Überlebenszeit wird ausschließlich für im Verlaufe des Experimentes sterbende Tiere bestimmt. Langzeit-überlebende (LTS) werden bei dieser Berechnung nicht berücksichtigt und gesondert aufgeführt.
Aus der mittleren Überlebenszeit (MSTt) der behandelten Gruppen sowie der Kontrollgruppen (MSTc) wird die antitumorale Wirksamkeit (T/C) für die jeweilige Substanzkonzentration in Prozent der unbehandelten Kontrolle entsprechend der folgenden Formel bestimmt: [formula]
T/C Werte größer als 125 % werden als Indikator einer signifikanten antitumoralen Wirksamkeit der Testsubstanz angesehen. Die Dosis, die den größten antitumoralen Effekt (optimale Dosierung) zeigte, wurde ermittelt. Tiere, die am Tag 60 des Experimentes noch leben, werden als Longterm-Survivors getrennt aufgeführt. Tabelle 2

[1] = L 1210 iv, treatment iv, Q3D (Verbind. 1: 2x, Pirarubicin: 3x)
[2] = L1210, read-out: IC₅₀ SCA L 1210 1 h

SMILES: COc1cccc2c1C(=O)c1c(O)c3c(c(O)c1C2=O)C[C@@](O)(C(=O)CO)C[C@@H]3O[C@H]1C[C@H](N)[C@H](O[C@@H]2CCCCO2)[C@H](C)O1 [Pirarubicin, 4′-O-THP-Doxorubicin, reference compound]
- IC50 (L 1210 Leukämiezellen; L1210, 1 h incubation at 37° C, colonies counted after 5-7 days, read-out: IC₅₀ SCA L 1210 1 h): 0.01 µg/mL (≈ 0.0159 µM)
- IC50 (L 1210 Leukämiezellen; L1210, continuous incubation, colonies counted after 5-7 days, read-out: IC₅₀ SCA L 1210 cont): 0.004 µg/mL (≈ 0.00637 µM)
- IC50 (L 1210; L1210, 72 h incubation): 0.004 µg/mL (≈ 0.00637 µM)
- IC50 (A 549; A549, 72 h incubation): 0.15 µg/mL (≈ 0.239 µM)
- IC50 (HT 29; HT-29, 72 h incubation): 0.016 µg/mL (≈ 0.0255 µM)
- opt. Dosis (L 1210 Leukämie; [1]): 4.7 mg/kg/inj
- Effektivität T/C % (L 1210 Leukämie; iv): 178%

SMILES: COc1cc(OC)cc(C(C)(C)OC(=O)N[C@H]2C[C@H](O[C@H]3C[C@](O)(C(=O)CO)Cc4c(O)c5c(c(O)c43)C(=O)c3c(OC)cccc3C5=O)O[C@@H](C)[C@H]2OC2CCCCO2)c1 (stereo partly drawn) [Verbindung 1, 7-O-(3-(3 ,5′-Dimethoxy-α,α-dimethyl-benzyloxycarbonylamino)-4-O-tetrahydropyranyl-2,3,6-tridesoxy-alpha-L-lyxohexopyranosyl)-adriamycinon]
- IC50 (L 1210 Leukämiezellen; [2]): 5.3 µg/mL (≈ 6.24 µM)
- IC50 (L 1210; L1210, 72 h): 0.027 µg/mL (≈ 0.0318 µM)
- IC50 (A 549; A549, 72 h): 0.023 µg/mL (≈ 0.0271 µM)
- IC50 (HT 29; HT-29, 72 h): 0.04 µg/mL (≈ 0.0471 µM)
- zytostatische Wirksamkeit (L 1210 Leukämie; "in vivo" L 1210-Testmodell, compared with Doxorubicin or Tetrahydropyranyl-Doxorubicin): erheblich bessere
- Effektivität toxisch (L 1210 Leukämie; animals per group with toxic effect, at optimal dose): 1/6
- Effektivität T/C % (L 1210 Leukämie; at optimal dose, mean survival time treated vs control, L 1210 iv, treatment iv, Q3D (Verbind. 1: 2x, Pirarubicin: 3x)): 435%
- opt. Dosis (L 1210 Leukämie; [1]): 20 mg/kg/inj
- Effektivität LTS (L 1210 Leukämie; long-term survivors at day 60, animals per group, at optimal dose): 5/6

SMILES: COc1cc(OC)cc(C(C)(C)OC(=O)N[C@H]2C[C@H](O[C@H]3C[C@](O)(C(=O)CO)Cc4c(O)c5c(c(O)c43)C(=O)c3c(OC)cccc3C5=O)O[C@@H](C)[C@H]2O)c1 [Verbindung 2, 7-O-(3-(3 ,5′-Dimethoxy-α,α-dimethyl-benzyloxycarbonylamino)-2,3,6-tridesoxy-alpha-L-lyxohexopyranosyl)-adriamycinon]
- IC50 (L 1210 Leukämiezellen; [2]): 6.4 µg/mL (≈ 8.36 µM)
- IC50 (L 1210; L1210, 72 h): 0.11 µg/mL (≈ 0.144 µM)
- IC50 (A 549; A549, 72 h): 0.11 µg/mL (≈ 0.144 µM)
- IC50 (HT 29; HT-29, 72 h): 0.13 µg/mL (≈ 0.17 µM)

SMILES: COc1cc(OC)cc(C(C)(C)OC(=O)N[C@H]2C[C@H](O[C@H]3C[C@](O)(C(=O)CO)Cc4c(O)c5c(c(O)c43)C(=O)c3c(OC)cccc3C5=O)O[C@@H](C)[C@@H]2O)c1 [Verbindung 3, 7-O-(3-(3 ,5′-Dimethoxy-α,α-dimethyl-benzyloxycarbonylamino)-2,3,6-tridesoxy-alpha-L-arabinohexopyranosyl)-adriamycinon]
- IC50 (L 1210; L1210, 72 h): 0.02 µg/mL (≈ 0.0261 µM)
- IC50 (A 549; A549, 72 h): 0.04 µg/mL (≈ 0.0522 µM)
- IC50 (HT 29; HT-29, 72 h): 0.11 µg/mL (≈ 0.144 µM)

SMILES: COc1cc(OC)cc(C(C)(C)OC(=O)N[C@H]2C[C@H](O[C@H]3C[C@](O)(C(C)=O)Cc4c(O)c5c(c(O)c43)C(=O)c3c(OC)cccc3C5=O)O[C@@H](C)[C@H]2O)c1 [Verbindung 4, 7-O-(3-(3 ,5′-Dimethoxy-α,α-dimethyl-benzyloxycarbonylamino)-2,3,6-tridesoxy-alpha-L-lyxohexopyranosyl)-daunomycinon]
- IC50 (L 1210 Leukämiezellen; [2]): 4.5 µg/mL (≈ 6 µM)
- IC50 (L 1210; L1210, 72 h): 0.14 µg/mL (≈ 0.187 µM)
- IC50 (A 549; A549, 72 h): 0.13 µg/mL (≈ 0.173 µM)
- IC50 (HT 29; HT-29, 72 h): 0.13 µg/mL (≈ 0.173 µM)

SMILES: CC[C@@]1(O)C[C@H](O[C@H]2C[C@H](NC(=O)OC(C)(C)c3cc(OC)cc(OC)c3)[C@H](O)[C@H](C)O2)c2c(O)c3c(c(O)c2[C@H]1O)C(=O)c1cccc(O)c1C3=O [Verbindung 8, 7-O-(3-(3,5-Dimethoxy-alpha,alpha-dimethyl-benzyloxycarbonylamino)-2,3,6-tridesoxy-alpha-L-lyxohexopyranosyl)-β-rhodomycinon]
- IC50 (L 1210 Leukämiezellen; [2]): 0.47 µg/mL (≈ 0.637 µM)
- IC50 (L 1210; L1210, 72 h): 0.004 µg/mL (≈ 0.00542 µM)
- IC50 (A 549; A549, 72 h): < 0.004 µg/mL
- IC50 (HT 29; HT-29, 72 h): < 0.004 µg/mL
